Laboratory results reported in PubChem BioAssay AID2060618 (Molecular Pharmacology Branch, DTP, NCI, 2025).

System: 454973-116-R2-J3-PDC spheroids, percent test/control viability
Experiment: Anticancer human tumor 454973-116-R2-J3-PDC patient-derived pancreatic carcinoma cell line growth inhibition [CLK]
Settings: spheroids with HUVEC and MSC; for IC50: curve of first compound; for viability, T/C: stronger effect = lower value
Method in brief: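 Patient-derived tumor cells grown as complex spheroids with HUVEC endothelial cells and mesenchymal stem cells, treated with drug combinations. Concentrations descend in half-log steps from near clinical Cmax, or from 10 microM if Cmax unknown.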

[1] = second compound 0.0316 µM, first compound 0.0316 µM
[2] = second compound 0.0316 µM, first compound 0.1 µM
[3] = second compound 0.0316 µM, first compound 0.316 µM
[4] = second compound 0.0316 µM, first compound 1 µM
[5] = second compound 0.0316 µM, first compound 3.16 µM
[6] = second compound 0.0316 µM, first compound 10 µM
[7] = second compound 0.1 µM, first compound 0.0316 µM
[8] = second compound 0.1 µM, first compound 0.1 µM
[9] = second compound 0.1 µM, first compound 0.316 µM
[10] = second compound 0.1 µM, first compound 1 µM
[11] = second compound 0.1 µM, first compound 3.16 µM
[12] = second compound 0.1 µM, first compound 10 µM
[13] = second compound 0.316 µM, first compound 0.0316 µM
[14] = second compound 0.316 µM, first compound 0.1 µM
[15] = second compound 0.316 µM, first compound 0.316 µM
[16] = second compound 0.316 µM, first compound 1 µM
[17] = second compound 0.316 µM, first compound 3.16 µM
[18] = second compound 0.316 µM, first compound 10 µM
[19] = second compound 1 µM, first compound 0.0316 µM
[20] = second compound 1 µM, first compound 0.1 µM
[21] = second compound 1 µM, first compound 0.316 µM
[22] = second compound 1 µM, first compound 1 µM
[23] = second compound 1 µM, first compound 3.16 µM
[24] = second compound 1 µM, first compound 10 µM
[25] = second compound 3.16 µM, first compound 0.0316 µM
[26] = second compound 3.16 µM, first compound 0.1 µM
[27] = second compound 3.16 µM, first compound 0.316 µM
[28] = second compound 3.16 µM, first compound 1 µM
[29] = second compound 3.16 µM, first compound 3.16 µM
[30] = second compound 3.16 µM, first compound 10 µM
[31] = second compound 10 µM, first compound 0.0316 µM
[32] = second compound 10 µM, first compound 0.1 µM
[33] = second compound 10 µM, first compound 0.316 µM
[34] = second compound 10 µM, first compound 1 µM
[35] = second compound 10 µM, first compound 3.16 µM
[36] = second compound 10 µM, first compound 10 µM
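Note: spheroids exposed to compounds for 7 days before readout.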

COc1cccc2c1C(=O)c1c(O)c3c(c(O)c1C2=O)CC(O)(C(=O)CO)CC3OC1CC(N)C(O)C(C)O1 (stereo unspecified) + CN1CCN(c2cc(C(=O)Nc3cc4cc(-c5cnn(C)c5)ccc4cn3)ccn2)CC1
IC50 (second compound 0.0316 µM): < 0.0316 µM
IC50 (second compound 0.1 µM): < 0.0316 µM
IC50 (second compound 0.316 µM): < 0.0316 µM
IC50 (second compound 1 µM): < 0.0316 µM
IC50 (second compound 3.16 µM): < 0.0316 µM
IC50 (second compound 10 µM): < 0.0316 µM
viability, T/C [1]: 40.8%
viability, T/C [2]: 27.2%
viability, T/C [3]: 21%
viability, T/C [4]: 8.81%
viability, T/C [5]: 0.25%
viability, T/C [6]: 0.19%
viability, T/C [7]: 29.2%
viability, T/C [8]: 26.5%
viability, T/C [9]: 17.9%
viability, T/C [10]: 3.51%
viability, T/C [11]: 0.16%
viability, T/C [12]: 0.16%
viability, T/C [13]: 1.16%
viability, T/C [14]: 1.16%
viability, T/C [15]: 1.46%
viability, T/C [16]: 0.14%
viability, T/C [17]: 0.33%
viability, T/C [18]: 0.12%
viability, T/C [19]: 0.11%
viability, T/C [20]: 0.15%
viability, T/C [21]: 1.47%
viability, T/C [22]: 0.11%
viability, T/C [23]: 0.12%
viability, T/C [24]: 0.18%
viability, T/C [25]: 0.08%
viability, T/C [26]: 0.45%
viability, T/C [27]: 0.15%
viability, T/C [28]: 0.15%
viability, T/C [29]: 0.17%
viability, T/C [30]: 0.1%
viability, T/C [31]: 0.12%
viability, T/C [32]: 0.43%
viability, T/C [33]: 0.13%
viability, T/C [34]: 0.12%
viability, T/C [35]: 0.14%
viability, T/C [36]: 0.11%

CCCS(=O)(=O)Nc1ccc(F)c(C(=O)c2c[nH]c3ncc(-c4ccc(Cl)cc4)cc23)c1F + CNC(=O)c1ccc(Nc2nc(OC3CCCC3)c3c(-c4ccc5nc(C)oc5c4)c[nH]c3n2)c(OC)c1
IC50 (second compound 0.0316 µM): 6.96 µM
IC50 (second compound 0.1 µM): 7.25 µM
IC50 (second compound 0.316 µM): 0.0316 µM
IC50 (second compound 1 µM): < 0.0316 µM
IC50 (second compound 3.16 µM): < 0.0316 µM
IC50 (second compound 10 µM): < 0.0316 µM
viability, T/C [1]: 96%
viability, T/C [2]: 107%
viability, T/C [3]: 102%
viability, T/C [4]: 126%
viability, T/C [5]: 107%
viability, T/C [6]: 23.8%
viability, T/C [7]: 97.5%
viability, T/C [8]: 106%
viability, T/C [9]: 111%
viability, T/C [10]: 111%
viability, T/C [11]: 109%
viability, T/C [12]: 27.9%
viability, T/C [13]: 48.2%
viability, T/C [14]: 45.2%
viability, T/C [15]: 45.5%
viability, T/C [16]: 51.2%
viability, T/C [17]: 53%
viability, T/C [18]: 14.4%
viability, T/C [19]: 32.2%
viability, T/C [20]: 33.6%
viability, T/C [21]: 33%
viability, T/C [22]: 37%
viability, T/C [23]: 32%
viability, T/C [24]: 12.9%
viability, T/C [25]: 27.9%
viability, T/C [26]: 27.3%
viability, T/C [27]: 31.6%
viability, T/C [28]: 36.7%
viability, T/C [29]: 29.7%
viability, T/C [30]: 10.4%
viability, T/C [31]: 26.2%
viability, T/C [32]: 23.9%
viability, T/C [33]: 25.9%
viability, T/C [34]: 29.4%
viability, T/C [35]: 31.9%
viability, T/C [36]: 9.04%

COC1C=CCC(C)C(C)S(=O)(=O)NC(=O)c2ccc3c(c2)N(CC2CCC21)CC1(CCCc2cc(Cl)ccc21)CO3 (stereo unspecified) + CNC(=O)c1ccc(Nc2nc(OC3CCCC3)c3c(-c4ccc5nc(C)oc5c4)c[nH]c3n2)c(OC)c1
IC50 (second compound 0.0316 µM): 5.34 µM
IC50 (second compound 0.1 µM): 4.57 µM
IC50 (second compound 0.316 µM): < 0.0316 µM
IC50 (second compound 1 µM): < 0.0316 µM
IC50 (second compound 3.16 µM): < 0.0316 µM
IC50 (second compound 10 µM): < 0.0316 µM
viability, T/C [1]: 99.4%
viability, T/C [2]: 104%
viability, T/C [3]: 93.9%
viability, T/C [4]: 95%
viability, T/C [5]: 86.8%
viability, T/C [6]: 6.26%
viability, T/C [7]: 91.8%
viability, T/C [8]: 98.8%
viability, T/C [9]: 92.4%
viability, T/C [10]: 84.3%
viability, T/C [11]: 70.9%
viability, T/C [12]: 8.61%
viability, T/C [13]: 48.2%
viability, T/C [14]: 53.7%
viability, T/C [15]: 42%
viability, T/C [16]: 46.1%
viability, T/C [17]: 46.3%
viability, T/C [18]: 11.5%
viability, T/C [19]: 30.2%
viability, T/C [20]: 23.3%
viability, T/C [21]: 14.2%
viability, T/C [22]: 14.4%
viability, T/C [23]: 17.6%
viability, T/C [24]: 14.9%
viability, T/C [25]: 24.1%
viability, T/C [26]: 17.4%
viability, T/C [27]: 11.2%
viability, T/C [28]: 11.9%
viability, T/C [29]: 13.9%
viability, T/C [30]: 11.8%
viability, T/C [31]: 23.7%
viability, T/C [32]: 21.5%
viability, T/C [33]: 12.1%
viability, T/C [34]: 9.9%
viability, T/C [35]: 8.86%
viability, T/C [36]: 9.25%
